Patent publication US7879881B2, “Piperidinyl compounds that selectively bind integrins” (Janssen Pharmaceutica NV, priority 2002, dated 2011)
Like-named read-outs stand apart in the source and are kept apart here.

Legend:
[1] = biological target: T1, Human αvβ3 (Homo sapiens, UniProt P05106+P06756); test: In Vitro Solid Phase Purified αvβ3 Binding Assay (vitronectin/αvβ3); settings: vitronectin binding to immobilized purified human αvβ3, mean ± spread
T1 construct: purchased Chemicon International Inc., Temecula, Calif
T1 sequence (P06756 31-889 limits assumed): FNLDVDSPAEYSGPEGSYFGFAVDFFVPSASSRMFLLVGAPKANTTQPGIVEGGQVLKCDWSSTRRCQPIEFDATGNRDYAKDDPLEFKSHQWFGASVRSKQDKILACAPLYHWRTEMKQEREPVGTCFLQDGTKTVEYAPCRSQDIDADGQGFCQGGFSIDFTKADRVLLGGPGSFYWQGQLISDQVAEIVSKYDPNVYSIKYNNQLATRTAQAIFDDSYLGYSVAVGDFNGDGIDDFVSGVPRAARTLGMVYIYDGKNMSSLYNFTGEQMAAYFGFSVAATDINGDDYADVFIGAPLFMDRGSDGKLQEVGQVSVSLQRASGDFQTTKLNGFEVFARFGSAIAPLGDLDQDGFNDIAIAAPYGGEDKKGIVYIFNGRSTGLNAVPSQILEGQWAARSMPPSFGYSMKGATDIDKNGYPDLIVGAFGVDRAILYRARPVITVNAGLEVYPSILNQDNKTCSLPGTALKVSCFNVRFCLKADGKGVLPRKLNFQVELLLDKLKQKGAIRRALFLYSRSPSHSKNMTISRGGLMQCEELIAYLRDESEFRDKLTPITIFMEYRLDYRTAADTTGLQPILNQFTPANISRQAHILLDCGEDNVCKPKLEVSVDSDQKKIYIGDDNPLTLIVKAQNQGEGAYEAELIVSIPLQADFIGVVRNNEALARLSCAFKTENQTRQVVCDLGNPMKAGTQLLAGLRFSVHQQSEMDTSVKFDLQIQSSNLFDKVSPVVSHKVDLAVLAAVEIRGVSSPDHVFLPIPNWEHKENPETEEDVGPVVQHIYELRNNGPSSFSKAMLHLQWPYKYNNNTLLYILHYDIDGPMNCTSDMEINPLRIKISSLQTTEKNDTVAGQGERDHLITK
T1 sequence (P06756 891-1048 partner limits assumed): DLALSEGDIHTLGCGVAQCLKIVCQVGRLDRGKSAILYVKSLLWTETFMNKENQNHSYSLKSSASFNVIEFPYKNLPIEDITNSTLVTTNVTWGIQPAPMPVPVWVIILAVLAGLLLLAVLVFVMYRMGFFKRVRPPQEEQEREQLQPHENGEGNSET
T1 sequence (P05106 27-788): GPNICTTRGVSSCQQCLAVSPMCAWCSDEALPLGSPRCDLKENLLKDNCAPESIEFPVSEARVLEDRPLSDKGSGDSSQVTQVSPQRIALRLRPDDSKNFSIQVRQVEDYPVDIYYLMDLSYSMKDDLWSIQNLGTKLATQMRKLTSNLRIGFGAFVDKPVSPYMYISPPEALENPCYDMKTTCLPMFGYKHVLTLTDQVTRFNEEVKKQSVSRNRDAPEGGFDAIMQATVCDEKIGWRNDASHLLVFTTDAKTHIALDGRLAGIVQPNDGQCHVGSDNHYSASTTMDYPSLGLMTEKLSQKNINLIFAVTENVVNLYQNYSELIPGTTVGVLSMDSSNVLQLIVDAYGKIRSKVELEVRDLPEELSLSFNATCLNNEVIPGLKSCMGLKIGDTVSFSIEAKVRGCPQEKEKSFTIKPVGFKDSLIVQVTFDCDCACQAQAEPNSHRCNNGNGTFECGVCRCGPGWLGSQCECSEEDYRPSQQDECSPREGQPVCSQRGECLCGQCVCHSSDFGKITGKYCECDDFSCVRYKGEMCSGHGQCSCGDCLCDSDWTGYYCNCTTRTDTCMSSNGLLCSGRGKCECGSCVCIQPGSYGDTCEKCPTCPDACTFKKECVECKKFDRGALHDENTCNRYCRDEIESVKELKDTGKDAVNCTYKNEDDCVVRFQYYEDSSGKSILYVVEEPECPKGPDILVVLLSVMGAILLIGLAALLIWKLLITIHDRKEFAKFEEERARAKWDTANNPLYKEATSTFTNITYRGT
Description: In Vitro Solid Phase Purified αvβ3 Binding Assay
(§1) Human αvβ3 (Chemicon International Inc., Temecula, Calif.), at a concentration of 1 μg/ml dissolved in Tris buffer (20 mM Tris, 1 mM CaCl2, 1 mM MgCl2, 10 μM MnCl2, 150 mM NaCl), was immobilized on Immulon 96 well plates (Dynex Technologies, Chantilly, Va.) overnight at 4° C. Plates were washed and treated with blocking buffer (3% BSA in Tris buffer) for 2 h at 37° C. Plates were then rinsed 2 times with assay buffer comprised of Tris buffer. Synthesized compounds were added to wells in duplicate immediately prior to the addition of 2 nM vitronectin (Sigma, St. Louis, Mo.). Following a 3 hour incubation at 37° C., plates were washed 5 times in assay buffer. An anti-human vitronectin IgG rabbit polyclonal antibody (Calbiochem, San Diego, Calif.) was added (1:2000) and plates were incubated for 1 hour at room temperature. VectaStain ABC peroxidase kit reagents (Vector Laboratories, Burlingame, Calif.) employing a biotin labeled anti-rabbit IgG, were utilized for detection of bound antibody. Plates were read at 490 nm on a Molecular Devices (Sunnyvale, Calif.) microplate reader.

[2] = biological target: GP IIb/IIIa (Homo sapiens, UniProt P05106+P08514); test: In Vitro Solid Phase Purified GP IIb/IIIa Binding Assay (biotinylated fibrinogen); settings: biotinylated fibrinogen binding to immobilized purified GP IIb/IIIa, mean ± spread
Chain of GP IIb/IIIa (P08514 32-887 limits assumed): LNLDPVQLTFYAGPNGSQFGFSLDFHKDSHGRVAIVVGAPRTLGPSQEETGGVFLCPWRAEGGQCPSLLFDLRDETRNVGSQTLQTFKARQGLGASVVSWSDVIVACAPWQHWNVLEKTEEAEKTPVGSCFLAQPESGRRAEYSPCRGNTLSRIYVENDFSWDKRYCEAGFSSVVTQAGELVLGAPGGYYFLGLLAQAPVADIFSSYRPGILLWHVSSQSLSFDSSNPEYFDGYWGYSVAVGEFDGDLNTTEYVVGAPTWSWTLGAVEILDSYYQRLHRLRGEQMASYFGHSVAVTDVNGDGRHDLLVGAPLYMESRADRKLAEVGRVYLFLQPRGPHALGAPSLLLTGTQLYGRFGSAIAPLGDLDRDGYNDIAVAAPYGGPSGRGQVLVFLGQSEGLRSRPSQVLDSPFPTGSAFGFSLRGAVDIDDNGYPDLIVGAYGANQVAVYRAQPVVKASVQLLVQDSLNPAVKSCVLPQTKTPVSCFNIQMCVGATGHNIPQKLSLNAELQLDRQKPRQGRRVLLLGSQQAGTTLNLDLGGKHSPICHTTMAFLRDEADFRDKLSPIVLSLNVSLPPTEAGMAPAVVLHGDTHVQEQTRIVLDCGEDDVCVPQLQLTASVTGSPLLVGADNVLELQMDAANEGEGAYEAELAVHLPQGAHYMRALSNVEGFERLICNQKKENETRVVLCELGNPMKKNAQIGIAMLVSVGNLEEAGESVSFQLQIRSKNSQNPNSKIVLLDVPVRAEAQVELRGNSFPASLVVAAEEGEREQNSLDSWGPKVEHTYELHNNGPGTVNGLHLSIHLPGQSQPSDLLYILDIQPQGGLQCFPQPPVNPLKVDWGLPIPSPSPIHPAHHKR
Chain of GP IIb/IIIa (P08514 891-1039 partner limits assumed): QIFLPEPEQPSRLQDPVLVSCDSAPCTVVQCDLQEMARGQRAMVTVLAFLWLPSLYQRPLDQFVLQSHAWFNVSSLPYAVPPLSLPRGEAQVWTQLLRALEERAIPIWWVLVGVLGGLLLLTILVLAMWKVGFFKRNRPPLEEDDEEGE
Chain of GP IIb/IIIa (P05106 27-788): as the sequence (P05106 27-788) above
Description: In Vitro Solid Phase Purified GP IIb/IIIa Binding Assay
The plate was covered and incubated overnight at 4° C. The GP IIb/IIIa solution was discarded and 150 μL of 5% BSA was added and incubated at RT for 1-3 h. The plate was washed extensively with modified Tyrodes buffer. Biotinylated fibrinogen (25 μL/well) at 2× final concentration was added to the wells that contain the test compounds (25 μL/well). The plate was covered and incubated at RT for 2-4 h. Twenty minutes prior to incubation completion, one drop of Reagent A (VectaStain ABC Horseradish Peroxidase kit, Vector Laboratories, Inc.) and one drop Reagent B were added with mixing to 5 mL modified Tyrodes buffer mix and let stand. The ligand solution was discarded and the plate washed (5×200 μL/well) with modified Tyrodes buffer. […] The Vecta Stain solution was discarded and the wells washed (5×200 μL/well) with modified Tyrodes buffer. Developing buffer (10 mL of 50 mM citrate/phosphate buffer @ pH 5.3, 6 mg o-phenylenediamine, 6 μL 30% H2O2; 50 μL/well) was added and incubated at RT for 3-5 min and then 2 N H2SO4 (50 μL/well) was added.

[3] = biological target: T2, human purified αVβ5 (Homo sapiens, UniProt P06756+P18084); test: In Vitro Solid Phase Purified αcβ5 Binding Assay (vitronectin/αVβ5); settings: vitronectin binding to immobilized purified human αVβ5, mean ± spread
T2 construct: purchased Chemicon International, Inc
T2 sequence (P06756 31-889 limits assumed): as the sequence (P06756 31-889 limits assumed) above
T2 sequence (P06756 891-1048 partner limits assumed): as the sequence (P06756 891-1048 partner limits assumed) above
T2 sequence (P18084 24-799): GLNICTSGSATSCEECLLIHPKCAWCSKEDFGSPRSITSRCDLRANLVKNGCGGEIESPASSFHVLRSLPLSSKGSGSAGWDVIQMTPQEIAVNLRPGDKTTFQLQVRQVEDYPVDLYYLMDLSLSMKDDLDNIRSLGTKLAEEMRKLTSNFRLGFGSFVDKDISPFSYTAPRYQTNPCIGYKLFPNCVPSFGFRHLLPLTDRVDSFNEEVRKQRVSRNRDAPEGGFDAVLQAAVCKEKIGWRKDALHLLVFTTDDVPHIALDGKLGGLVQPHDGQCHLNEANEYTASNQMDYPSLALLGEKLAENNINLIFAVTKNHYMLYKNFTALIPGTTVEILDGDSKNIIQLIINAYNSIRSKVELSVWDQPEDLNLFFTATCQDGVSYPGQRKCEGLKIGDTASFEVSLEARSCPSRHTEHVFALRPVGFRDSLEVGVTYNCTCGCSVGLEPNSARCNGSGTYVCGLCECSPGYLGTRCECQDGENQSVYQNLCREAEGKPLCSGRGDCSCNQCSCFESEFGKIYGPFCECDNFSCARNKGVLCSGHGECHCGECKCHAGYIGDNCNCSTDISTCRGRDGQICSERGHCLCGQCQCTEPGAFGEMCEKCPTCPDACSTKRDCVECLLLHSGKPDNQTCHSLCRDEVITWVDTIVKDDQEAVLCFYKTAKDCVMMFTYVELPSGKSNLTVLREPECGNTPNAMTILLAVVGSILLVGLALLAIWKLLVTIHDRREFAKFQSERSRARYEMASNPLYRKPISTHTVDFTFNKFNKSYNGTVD
Description: as §1
In Vitro Solid Phase Purified αcβ5 Binding Assay
All other aspects of the assay including buffers, reagents and incubation times remain unchanged.

Molecule	IC50 ([1]; read-out: αvβ3IC50) [µM]	IC50 ([2]; read-out: αIIbβ3 IC50) [µM]	IC50 ([3]; read-out: αvβ5 IC50) [µM]	IC50 ([1]; αvβ3IC50 (uM)) [µM]	IC50 ([2]; αIIbβ3 IC50 (uM)) [µM]	IC50 ([3]; αvβ5 IC50 (uM)) [µM]
O=C(O)CC(CCC1CCN(C(=O)CCCNc2ccccn2)CC1)c1ccc2c(c1)OCO2 (stereo not drawn) [Cpd 23, β-(1,3-benzodioxol-5-yl)-1-[1-oxo-4-(2-pyridinylamino)butyl]-4-piperidinepentanoic acid]	0.298 ± 0.146	4.93	2.01			
CN(C)c1cccc(C(CC(=O)O)CC2CCN(C(=O)CCc3ccc4c(n3)NCCC4)CC2)c1 (racemic) [Cpd 75]	0.0053 ± 0.001	> 50	0.0419 ± 0.0052			
β-[2-[1-[1-oxo-3-(5,6,7,8-tetrahydro-1,8-naphthyridin-2-yl)propyl]-4-piperidinyl]ethyl]-3-quinolinepropanoic acid [Cpd 52]	0.0064 ± 0.0014	0.57 ± 0.04	> 50			
O=C(O)CC(CC1CCN(C(=O)CCc2ccc3c(n2)NCCC3)CC1)c1cccc(F)c1 (stereo not drawn) [Cpd 30, β-(3-fluorophenyl)-1-[1-oxo-3-(5,6,7,8-tetrahydro-1,8-naphthyridin-2-yl)propyl]-4-piperidinebutanoic acid]	0.001 ± 0.0002	14.4 ± 5.98	0.0028 ± 0.0001			
O=C(O)CCC1CCN(C(=O)Cc2cccc(NC3=NCCCN3)c2)CC1 [Cpd 1, 1-[[3-[(1,4,5,6-Tetrahydro-2-pyrimidinyl)amino]phenyl]acetyl]-4-piperidinepropanoic acid]	0.056 ± 0.007	4.33 ± 0.15	> 5			
NC(=O)CC(CC1CCN(C(=O)CCc2ccc3c(n2)NCCC3)CC1)c1cccc(F)c1 (racemic) [Cpd 64, 3-(3-Fluoro-phenyl)-4-[1-(3-5,6,7,8-tetrahydro-[1,8]naphthyridin-2-yl-propionyl)-piperidin-4-yl]-butyramide]	0.0615 ± 0.0055	> 50	0.147 ± 0.0847			
O=C(O)CC(CC1CCN(C(=O)CCc2ccc3c(n2)NCCC3)CC1)c1cccc(F)c1 (single isomer, unassigned) [Cpd 30a, β-(3-fluorophenyl)-1-[1-oxo-3-(5,6,7,8-tetrahydro-1,8-naphthyridin-2-yl)propyl]-4-piperidinebutanoic acid]	0.0004 ± 0.0002	2.93 ± 1.86	0.0019 ± 0.0004			
O=C(O)CC(CC1CCN(C(=O)CCc2ccc3c(n2)NCCC3)CC1)c1ccccc1 (stereo not drawn) [Cpd 13, 1-[1-oxo-3-(5,6,7,8-tetrahydro-1,8-naphthyridin-2-yl)propyl]-β-phenyl-4-piperidinebutanoic acid]	0.0032 ± 0.0006	11.1 ± 3.4	0.036 ± 0.0133			
CSc1cccc(C(CC(=O)O)CC2CCN(C(=O)CCc3ccc4c(n3)NCCC4)CC2)c1 (racemic) [Cpd 66]	0.0012 ± 0.0001	28.3	0.0103 ± 0.0014			
O=C(O)CC(CC1CCN(C(=O)CCCc2ccc3c(n2)NCCC3)CC1)c1cnc2ccccc2c1 (stereo not drawn) [Cpd 29, β-[[1-[1-oxo-4-(5,6,7,8-tetrahydro-1,8-naphthyridin-2-yl)butyl]-4-piperidinyl]methyl]-3-quinolinepropanoic acid]	0.0022 ± 0.0008	1.74 ± 0.89	0.119 ± 0.015			
COc1ccc(C(CC(=O)O)CC2CCN(C(=O)CCc3ccc4c(n3)NCCC4)CC2)cc1F (stereo not drawn) [Cpd 42, β-(3-fluoro-4-methoxyphenyl)-1-[1-oxo-3-(5,6,7,8-tetrahydro-1,8-naphthyridin-2-yl)propyl]-4-piperidinebutanoic acid]	0.0007 ± 0.0003	5 ± 0.74	0.0189 ± 0.0046			
O=C(O)CC(c1cnc2c(c1)CCCC2)C1CCN(C(=O)CCCc2ccc3c(n2)NCCC3)CC1 (single isomer, unassigned) [Cpd 58a, 5,6,7,8-Tetrahydro-β-[1-[1-oxo-4-(5,6,7,8-tetrahydro-1,8-naphthyridin-2-yl)butyl]-4-piperidinyl]-3-quinolinepropanoic acid]	0.0004 ± 0.0003	1.44 ± 0.39	0.0323 ± 0.0082			
O=C(O)CC(CC1CCN(C(=O)CCc2ccc3c(n2)NCCC3)CC1)c1ccc(OC(F)(F)F)cc1 (stereo not drawn) [Cpd 40, 1-[1-oxo-3-(5,6,7,8-tetrahydro-1,8-naphthyridin-2-yl)propyl]-β-[4-(trifluoromethoxy)phenyl]-4-piperidinebutanoic acid]	0.0052 ± 0.0002	24 ± 9.89	0.308 ± 0.063			
COc1ccc(C(CC(=O)O)CC2CCN(C(=O)CCc3ccc4c(n3)NCCC4)CC2)cn1 (single isomer, unassigned) [Cpd 28b, 6-methoxy-β-[[1-[1-oxo-3-(5,6,7,8-tetrahydro-1,8-naphthyridin-2-yl)propyl]-4-piperidinyl]methyl]-3-pyridinepropanoic acid]	0.0208 ± 0.0053	24.3	0.126 ± 0.0448			
O=C(O)CC(CC1CCN(C(=O)CCc2ccc3c(n2)NCCC3)CC1)c1cnc2c(c1)CCCC2 (racemic) [Cpd 57, 5,6,7,8-tetrahydro-β-[[1-[1-oxo-3-(5,6,7,8-tetrahydro-1,8-naphthyridin-2-yl)propyl]-4-piperidinyl]methyl]-3-quinolinepropanoic acid]				0.0016 ± 0.0007	3.04 ± 0.55	0.0109 ± 0.0042
COc1ccc(C(CC(=O)O)CC2CCN(C(=O)CCc3ccc4c(n3)NCCC4)CC2)cn1 (single isomer, unassigned) [Cpd 28a, 6-methoxy-β-[[1-[1-oxo-3-(5,6,7,8-tetrahydro-1,8-naphthyridin-2-yl)propyl]-4-piperidinyl]methyl]-3-pyridinepropanoic acid]	0.0003 ± 0.0002		0.0042 ± 0.0018		1.83 ± 0.57	
CCNc1cccc(C(CC(=O)O)CC2CCN(C(=O)CCc3ccc4c(n3)NCCC4)CC2)c1 (racemic) [Cpd 78, 3-(3-Ethylamino-phenyl)-4-[1-(3-5,6,7,8-tetrahydro-[1,8]naphthyridin-2-yl-propionyl)-piperidin-4-yl]-butyric acid]	0.0057 ± 0.0001	24.7	0.026 ± 0.003			
COC(=O)CCCC1CCN(C(=O)CCc2ccc3c(n2)NCCC3)CC1 [Cpd 73, 4-[1-(3-5,6,7,8-Tetrahydro-[1,8]naphthyridin-2-yl-propionyl)-piperidin-4-yl]-butyric acid methyl ester]	> 0.5	> 50	> 1			
O=C(O)CC(c1ccc2c(c1)OCO2)C1CCN(C(=O)CCCNc2ccccn2)CC1 (stereo not drawn) [Cpd 24, β-(1,3-benzodioxol-5-yl)-1-[1-oxo-4-(2-pyridinylamino)butyl]-4-piperidinepropanoic acid]	0.307	19.3	0.387			
O=C(O)CC(CC1CCN(C(=O)c2cccc(NC3=NCC(O)CN3)c2)CC1)c1ccc2c(c1)OCO2 (stereo not drawn) [Cpd 27, β-(1,3-benzodioxol-5-yl)-1-[3-[(1,4,5,6-tetrahydro-5-hydroxy-2-pyrimidinyl)amino]benzoyl]-4-piperidinebutanoic acid]	0.048	1.62 ± 0.56	0.81			
O=C(O)CC(CC1CCN(C(=O)CCc2ccc3c(n2)NCCC3)CC1)c1cccs1 (racemic) [Cpd 63]	0.0018 ± 0.0008	10.2 ± 6.41	0.007 ± 0.0008			
O=C(O)CC(CCC1CCN(C(=O)c2cccc(NC3=NCCCC3)c2)CC1)c1cnc2ccccc2c1 (stereo not drawn) [Cpd 50, β-[2-[1-[3-[(3,4,5,6-tetrahydro-2-pyridinyl)amino]benzoyl]-4-piperidinyl]ethyl]-3-quinolinepropanoic acid]	0.0156 ± 0.0044	0.19 ± 0.04	0.676			
O=C(O)CC(CC1CCN(C(=O)CCCc2ccc3c(n2)NCCC3)CC1)c1ccc(F)cc1 (stereo not drawn) [Cpd 34, β-(4-fluorophenyl)-1-[1-oxo-4-(5,6,7,8-tetrahydro-1,8-naphthyridin-2-yl)butyl]-4-piperidinebutanoic acid]	0.148 ± 0.1	> 50	1.04 ± 0.109			
O=C(O)CC(c1cnc2ccccc2c1)C1CCN(C(=O)Cc2cccc(NC3=NCC(O)CN3)c2)CC1 (stereo not drawn) [Cpd 3, β-[1-[[3-[(1,4,5,6-Tetrahydro-5-hydroxy-2-pyrimidinyl)amino]phenyl]acetyl]-4-piperidinyl]-3-quinolinepropanoic acid]	0.0036 ± 0.0004	0.21	2.5			
